According to the NIST ThermoML archive (doi:10.1016/j.fluid.2012.10.002):
Values joined by “and” are separate entries in the source; they are usually repeats but may differ in a detail not shown here. Equal values may be shown once.

Assay: xn = mol fraction of the nth substance listed
Conditions: Gas, Frequency=0.05 MHz, Linear variable-path acoustic interferometer

FC(F)(F)C(F)(F)F [hexafluoroethane] + FC(F)(F)C(F)(F)C(F)(F)F
x1 = 1
Conditions | speed of sound [m/s]
261.1 K, 183 kPa | 127.95
263.74 K, 185 kPa | 128.64
266.3 K, 186 kPa | 129.3
268.82 K, 188 kPa | 129.95
270.22 K, 189 kPa | 130.3
271.26 K, 190 kPa | 130.57
273.89 K, 192 kPa | 131.26
276.33 K, 194 kPa | 131.87
278.84 K, 195 kPa | 132.51
281.3 K, 197 kPa | 133.11
281.31 K, 197 kPa | 133.1
283.84 K, 199 kPa | 133.77
286.31 K, 201 kPa | 134.35
288.82 K, 203 kPa | 135
293.64 K, 206 kPa | 136.18
296.91 K, 208 kPa | 136.93
301.03 K, 212 kPa | 137.94
303.69 K, 213 kPa | 138.56
306.24 K, 215 kPa | 139.22
308.82 K, 217 kPa | 139.82
311.28 K, 219 kPa | 140.41
313.79 K, 221 kPa | 141
318.78 K, 224 kPa | 142.17
323.78 K, 228 kPa | 143.37

FC(F)(F)C(F)(F)C(F)(F)F [octafluoropropane] + FC(F)(F)C(F)(F)F
Conditions | speed of sound
258.87 K, 181 kPa, x2 = 0 | 104.06 m/s
261.04 K, 214 kPa, x2 = 0.146 | 106.6 m/s
261.17 K, 183 kPa, x2 = 0 | 104.66 m/s
263.69 K, 217 kPa, x2 = 0.146 | 107.31 m/s
266.22 K, 219 kPa, x2 = 0.146 | 107.96 m/s
268.73 K, 189 kPa, x2 = 0 | 106.57 m/s
268.76 K, 222 kPa, x2 = 0.146 | 108.61 m/s
270.28 K, 190 kPa, x2 = 0 | 106.94 m/s
271.52 K, 214 kPa, x2 = 0.11 | 108.77 m/s
271.54 K, 224 kPa, x2 = 0.146 | 109.31 m/s
273.74 K, 193 kPa, x2 = 0 | 107.79 m/s
273.82 K, 227 kPa, x2 = 0.146 | 109.89 m/s
273.86 K, 202 kPa, x2 = 0.048 | 108.5 m/s
273.88 K, 216 kPa, x2 = 0.11 | 109.36 m/s
273.9 K, 216 kPa, x2 = 0.11 | 109.35 m/s
276.23 K, 195 kPa, x2 = 0 | 108.4 m/s
276.3 K, 219 kPa, x2 = 0.11 | 109.94 m/s
276.35 K, 229 kPa, x2 = 0.146 | 110.52 m/s
278.61 K, 206 kPa, x2 = 0.048 | 109.65 m/s
278.75 K, 197 kPa, x2 = 0 | 109 m/s
279.06 K, 231 kPa, x2 = 0.146 | 111.21 m/s
281.01 K, 208 kPa, x2 = 0.048 | 110.21 m/s
281.09 K, 223 kPa, x2 = 0.11 | 111.13 m/s
281.24 K, 199 kPa, x2 = 0 | 109.59 m/s
281.35 K, 233 kPa, x2 = 0.146 | 111.76 m/s
281.94 K, 224 kPa, x2 = 0.11 | 111.33 m/s
283.42 K, 225 kPa, x2 = 0.11 | 111.69 m/s
283.48 K, 210 kPa, x2 = 0.048 | 110.83 m/s
283.81 K, 201 kPa, x2 = 0 | 110.19 m/s
284.05 K, 236 kPa, x2 = 0.146 | 112.44 m/s
285.85 K, 212 kPa, x2 = 0.048 | 111.38 m/s
285.87 K, 212 kPa, x2 = 0.048 | 111.39 m/s
285.92 K, 227 kPa, x2 = 0.11 | 112.29 m/s
286.31 K, 203 kPa, x2 = 0 | 110.78 m/s
286.39 K, 238 kPa, x2 = 0.146 | 112.99 m/s
288.79 K, 205 kPa, x2 = 0 | 111.35 m/s
288.96 K, 241 kPa, x2 = 0.146 | 113.61 m/s
290.79 K, 231 kPa, x2 = 0.11 | 113.46 m/s
291.2 K, 207 kPa, x2 = 0 | 111.92 m/s
291.22 K, 217 kPa, x2 = 0.048 | 112.64 m/s
291.37 K, 243 kPa, x2 = 0.146 | 114.18 m/s
293.19 K, 218 kPa, x2 = 0.048 | 113.11 m/s
293.86 K, 245 kPa, x2 = 0.146 | 114.77 m/s
294.01 K, 245 kPa, x2 = 0.146 | 114.81 m/s
294.82 K, 246 kPa, x2 = 0.146 | 115.01 m/s
294.96 K, 235 kPa, x2 = 0.11 | 114.43 m/s
295.16 K, 235 kPa, x2 = 0.11 | 114.49 m/s
295.22 K, 220 kPa, x2 = 0.048 | 113.57 m/s
295.26 K, 210 kPa, x2 = 0 | 112.82 m/s
295.26 K, 220 kPa, x2 = 0.048 | 113.58 m/s
295.28 K, 220 kPa, x2 = 0.048 | 113.59 m/s
296.26 K, 247 kPa, x2 = 0.146 | 115.34 m/s
297.13 K, 248 kPa, x2 = 0.146 | 115.54 m/s and 115.55 m/s
298.69 K, 250 kPa, x2 = 0.146 | 115.9 m/s
300.46 K, 224 kPa, x2 = 0.048 | 114.77 m/s
301.15 K, 215 kPa, x2 = 0 | 114.22 m/s
301.17 K, 252 kPa, x2 = 0.146 | 116.47 m/s
302.82 K, 226 kPa, x2 = 0.048 | 115.32 m/s
302.91 K, 242 kPa, x2 = 0.11 | 116.26 m/s
303.66 K, 254 kPa, x2 = 0.146 | 117.06 m/s
303.67 K, 216 kPa, x2 = 0 | 114.79 m/s
303.69 K, 217 kPa, x2 = 0 | 114.78 m/s
306.23 K, 219 kPa, x2 = 0 | 115.37 m/s
307.6 K, 230 kPa, x2 = 0.048 | 116.4 m/s
308.64 K, 259 kPa, x2 = 0.146 | 118.2 m/s
311.15 K, 261 kPa, x2 = 0.146 | 118.77 m/s
311.27 K, 223 kPa, x2 = 0 | 116.48 m/s
312.3 K, 234 kPa, x2 = 0.048 | 117.45 m/s
312.47 K, 251 kPa, x2 = 0.11 | 118.45 m/s
313.65 K, 264 kPa, x2 = 0.146 | 119.34 m/s
314.99 K, 253 kPa, x2 = 0.11 | 119.04 m/s
315.91 K, 237 kPa, x2 = 0.048 | 118.26 m/s
316.18 K, 266 kPa, x2 = 0.146 | 119.91 m/s
316.26 K, 226 kPa, x2 = 0 | 117.58 m/s
317.39 K, 255 kPa, x2 = 0.11 | 119.56 m/s
318.68 K, 268 kPa, x2 = 0.146 | 120.47 m/s
319.74 K, 257 kPa, x2 = 0.11 | 120.07 m/s
321.23 K, 230 kPa, x2 = 0 | 118.64 m/s
322.15 K, 259 kPa, x2 = 0.11 | 120.6 m/s
323.51 K, 273 kPa, x2 = 0.146 | 121.55 m/s
323.74 K, 232 kPa, x2 = 0 | 119.18 m/s
